Assay results taken from patent US20150273057A1, “Combination” (GLAXOSMITHKLINE LLC, priority 2012, published 2015).

Legend:
Experiment in all cases: Cell growth inhibition assay (Cell Titer Glo, 7 days)
Type in all cases: cell-based, Human
SW1417 = SW1417 BRAF V600E mutant CRC line, relative to vehicle (DMSO)
Procedure: (§1) Human colon tumor lines, Colo-205, HT-29, RKO, SW1417, LS411N and human melanoma line A375 were from ATCC. All lines were cultured in RPMI 1640 medium containing 10% fetal bovine serum (FBS).
(§2) All cells were cultured for a minimum of 72 hours prior to cell plating. Cells were assayed in a 96-well tissue culture plate (NUNC 136102) of RPMI medium containing 10% FBS for all cells at 500 cells per well. […] ATP levels were determined by adding Cell Titer Glo® (Promega) according to the manufacturer's protocol. Briefly, Cell Titer Glo0 was added to each plate, incubated for 30 minutes then luminescent signal was read on the SpectraMax L plate reader with a 0.5 sec integration time.
(§3) Inhibition of cell growth was estimated after treatment with compound or combination of compounds for 7 days and comparing the signal to cells treated with vehicle (DMSO). Cell growth was calculated relative to vehicle (DMSO) treated control wells.

A375 = A375 melanoma line, relative to vehicle (DMSO)
Procedure: as §1, §2, §3

Colo-205 = Colo-205 BRAF V600E mutant CRC line, relative to vehicle (DMSO)
Procedure: as §1, §2, §3

HT-29 = HT-29 BRAF V600E mutant CRC line, relative to vehicle (DMSO)
Procedure: as §1, §2, §3

LS411N = LS411N BRAF V600E mutant CRC line, relative to vehicle (DMSO)
Procedure: as §1, §2, §3

RKO = RKO BRAF V600E mutant CRC line, relative to vehicle (DMSO)
Procedure: as §1, §2, §3

SMILES | cell growth inhibition, agent alone (SW1417) | cell growth inhibition, agent alone (A375) | cell growth inhibition, agent alone (Colo-205) | cell growth inhibition, agent alone (HT-29) | cell growth inhibition, agent alone (LS411N) | cell growth inhibition, agent alone (RKO)
CC(=O)Nc1cccc(-n2c(=O)n(C3CC3)c(=O)c3c(Nc4ccc(I)cc4F)n(C)c(=O)c(C)c32)c1 [Compound A, N-{3-[3-cyclopropyl-5-(2-fluoro-4-iodo-phenylamino)6,8-dimethyl-2,4,7-trioxo-3,4,6,7-tetrahydro-2H-pyrido[4,3-d]pyrimidin-1-yl]phenyl}acetamide] | resistant | sensitive | sensitive | sensitive | sensitive | resistant
CC(C)(C)c1nc(-c2cccc(NS(=O)(=O)c3c(F)cccc3F)c2F)c(-c2ccnc(N)n2)s1 [Compound B, N-{3-[5-(2-Amino-4-pyrimidinyl)-2-(1,1-dimethylethyl)-1,3-thiazol-4-yl]-2-fluorophenyl}-2,6-difluorobenzenesulfonamide] | resistant | sensitive | sensitive | sensitive | sensitive | resistant
C#Cc1cccc(Nc2ncnc3cc(OCCOC)c(OCCOC)cc23)c1 [erlotinib, reference compound] | inactive | inactive | inactive | inactive | inactive | inactive
